# Paper PMC12049818, “Identification of NUV-244 as a PNPLA3 I148M degrading small molecule” (iScience, 2025)
# Key:
# [1] = molecular target: T1, PNPLA3 WT (Homo sapiens, UniProt Q9NST1); assay: nanoDSF thermal shift, PNPLA3 WT protein; assay type: binding; conditions: ligand 25 μM
# T1 construct: Full-length wild-type PNPLA3 (Q9NST1), mutant PNPLA3 (I148M), and PNPLA2 (Q96AD5) were cloned into the pVL1393 vector; Flag (N); made in house; host or cells: SF9 insect cells (baculovirus, pVL1393)
# T1 sequence (Q9NST1 1-481): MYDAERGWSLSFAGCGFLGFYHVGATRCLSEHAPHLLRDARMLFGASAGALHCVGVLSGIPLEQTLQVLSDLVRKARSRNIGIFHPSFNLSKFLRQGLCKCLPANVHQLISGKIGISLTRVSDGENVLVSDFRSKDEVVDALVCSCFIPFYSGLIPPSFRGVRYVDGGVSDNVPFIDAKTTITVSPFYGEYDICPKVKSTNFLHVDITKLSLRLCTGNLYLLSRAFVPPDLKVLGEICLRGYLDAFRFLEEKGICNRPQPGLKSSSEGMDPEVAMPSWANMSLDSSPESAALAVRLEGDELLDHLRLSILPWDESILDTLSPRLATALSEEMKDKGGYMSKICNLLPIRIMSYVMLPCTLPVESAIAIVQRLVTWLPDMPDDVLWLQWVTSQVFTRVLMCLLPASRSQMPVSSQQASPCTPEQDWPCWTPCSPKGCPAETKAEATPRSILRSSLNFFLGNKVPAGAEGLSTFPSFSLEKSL
# Excerpt: To investigate the mode of action of NUV-244, we evaluated its direct binding to the PNPLA3 I148M protein using nano differential scanning fluorimetry (nanoDSF). In this assay, compounds that bind to a target protein can lead to thermal stabilization, preventing protein denaturation, which is reflected in a shift of the protein melting curve.
# Full-length wild-type PNPLA3 (Q9NST1), mutant PNPLA3 (I148M), and PNPLA2 (Q96AD5) were cloned into the pVL1393 vector with an N-terminal Flag-Tag. Proteins were expressed in SF9 cells infected at a multiplicity of infection (MOI) of 1 for 72 hours. Protein purification was performed using a two-step process. The first step involved affinity purification using M2 anti-Flag agarose beads. This was followed by gel filtration chromatography using a Superdex 200 column. Thermal melting experiments were carried out using a Prometheus NT.48 instrument (NanoTemper Technologies). Proteins were prepared in 20 mM Tris-HCl pH 7.4, 100 mM NaCl, 5 % Glycerol, 2 mM DTT and 0.2 mg/mL was used as a final concentration in 50 μL volume. For binding experiments, ligands were added to the mixture at a final concentration of 25 μM, DMSO was used as control. […] The intrinsic protein fluorescence at 330 and 350 nm was recorded. Data were analysed using Prometheus NT.48 software. Thermal shifts (ΔTm) were calculated, and Z-scores greater than 6 indicated robust stabilization. […]
# [2] = molecular target: T2, PNPLA3 (Homo sapiens, UniProt Q9NST1); assay: Huh7 untagged PNPLA3 immunofluorescence on lipid droplets; assay type: cell-based; conditions: anti-PNPLA3 IF; representative curve, Figure 3E
# T2 construct: host or cells: Huh7
# T2 sequence (Q9NST1 1-481): T1 sequence (Q9NST1 1-481)
# Method: Even though C-terminal tagging is reported not to interfere with PNPLA3 localization,[20] we established an assay to exclude the possibility that C-terminal tagging of PNPLA3 with tagRFP could alter PNPLA3 response to NUV-244 on lipid droplets. For this we generated Huh7 cell lines that express untagged variants of PNPLA3 I148M or PNPLA3 WT and visualized PNPLA3 on lipid droplets by immunofluorescence (Figures 3C, 3D, and S3A).
# Cells were fixed with 4% paraformaldehyde for 15 minutes at room temperature. Cells were blocked with 0.2 M glycine, 0.1 mg/mL saponin, and 30 mg/mL bovine serum albumin (BSA) (all Sigma Aldrich) in PBS for 1 hour. Cells were washed 1x with washing buffer (0,1 mg/ml saponin + 1 mg/ml Bovine serum albumin) using a Blue Washer (Blue Cat Bio). Mouse anti-human ADPN (PNPLA3, C-8, #sc-390252, Santa Cruz) and rabbit anti-human PNPLA2 (Sigma Aldrich, #HPA055173-25UL) primary antibodies and appropriate secondary antibodies conjugated with Alexa-Fluor 647 (Jackson ImmunoResearch) were used. […]
# Images were acquired by an Opera Phenix confocal spinning disc microscope system (Revvity, Waltham, MA, USA) with a 20x or 40x water objective at 405 nm (Hoechst), 488 nm (BODIPY) and 647 nm. Quantification was carried out with the Harmony (Revvity, Waltham, MA, USA) or MetaXpress software (Molecular Devices). […]
# [3] = system: Huh7 cells; assay: Incucyte growth curves, Huh7; assay type: cell-based, human; conditions: 1μM or 5μM; compared to DMSO
# Method: Huh7, Huh7 PNPLA3 I148M, Huh7 PNPLA3, Hep3b and LX-2 cells were seeded at a concentration of 1000 cells/well in 60 μl of growth medium on 384-well microtiter plates (Revvity, Waltham, MA, USA, PhenoPlate 384-well microplate, #6057308) and stored in a 37°C incubator with 5% CO2 and 95% humidity overnight. Next day cells were treated with DMSO as control (1% final concentration) or compound (1μM or 5μM final concentration) and cell density was recorded in the Incucyte® life cell imager (Sartorius, Göttingen, Germany) every 4 hours over a period of 5 days. Growth curves were generated by monitoring confluence over time. Proliferative capacity of PNPLA3 I148M-expressing cells was compared to control cells, and the restoration of proliferative fitness was analyzed.
compound,measurement,setting,value
Cc1cccc(Cc2nc(C)c(C(=O)Nc3cc(O)ccc3Cl)s2)c1 [NUV-244],ΔTm PNPLA3 WT,[1],7.02 °C
same,EC50,[2],341 nM
same,"effect on proliferative capacity, Huh7",[3],no effects
